Measured values taken from paper PMC6264731, “Chemo-Enzymatic Synthesis of Ester-Linked Docetaxel-Monosaccharide Conjugates as Water-Soluble Prodrugs” (Molecules, 2011).
≈ marks a conversion by molar mass, not a printed value. Where two headings read alike, the source gives them in different places.

Legend:
[1] = Water-solubility, stirred in water 24 h at 25 °C, HPLC quantification; type: physicochemical
Protocol: The mixture was centrifuged at 100,000 g for 30 min at 25 °C. The concentration of test compounds was estimated on the basis of their peak areas using calibration curves prepared by HPLC analyses of authentic samples.

[2] = system: KB human cancer cells; experiment: MTT cytotoxicity assay in KB cells; type: cell-based; conditions: 24 h treatment
Protocol: (§1) The sensitivity of KB and MCF-7 cells to docetaxel or 4–6 was determined according to the previously reported method. Cells were diluted with culture medium to the seeding density (10^5 cells/mL), suspended in 96-well tissue culture plates (100 μL/well), preincubated at 37 °C for 4 h, and then treated for 24 h with docetaxel or 4–6 at various concentrations to obtain a dose–response curve for each compound. After incubation, 20 μL MTT solution (2.5 mg/mL) was added to each well and the plates were further incubated for 4 h. Absorbance at 570 nm was measured with a microplate reader model 450 (BIO-RAD). Dose-response curves were plotted on a semi-log scale as percentage of the cell numbers in control cultures not exposed to test compounds.

[3] = system: MCF-7 human cancer cells; experiment: MTT cytotoxicity assay in MCF-7 cells; type: cell-based; conditions: for IC50 MCF-7 cells: 24 h treatment
Protocol: as §1

[4] = system: KB human cancer cells; experiment: Hydrolysis of prodrugs by KB cells, release of docetaxel (HPLC); type: cell-based; conditions: 5 μmol compound, 20 mg KB cells in RPMI 1640, 37 °C, 24 h
Protocol: To a 5-mL vial containing RPMI 1640 medium (1 mL, Nissui Pharmaceutical Co. Ltd.) and KB cells (20 mg) was added 5 μmol of each compound. The mixture was incubated at 37 °C for 24 h. The cells and medium were separated by centrifugation at 10,000 g for 5 min. The cells were extracted with MeOH. MeOH extract was concentrated, and the residue was partitioned between H2O and CH2Cl2. The medium was extracted with CH2Cl2. The CH2Cl2 fractions were combined, concentrated, and analyzed by HPLC. The yield of docetaxel was calculated on the basis of the peak area from HPLC using a calibration curve provided by HPLC analyses of authentic docetaxel.

solubility at 24 h [1]	Conversion to docetaxel (hydrolysis by KB cells) [4]	Fold (water-solubility relative to docetaxel) ([1]; relative to docetaxel)	solubility at 24 h ([1]; thermodynamic from solid)	Compound	IC50 KB cells [2]	IC50 MCF-7 cells [3]	IC50 ([2]; Homo sapiens)	IC50 ([3]; Homo sapiens, MCF7, 24 h treatment)
20.2 µM	76%	–	–	7-propionyldocetaxel 3''-O-β-D-xylopyranoside [Compound 6]	25 µg/mL	12 µg/mL	–	–
–	–	1 fold	0.5 µM (≈ 0.404 µg/mL)	CC(=O)O[C@@]12CO[C@@H]1C[C@H](O)[C@@]1(C)C(=O)[C@H](O)C3=C(C)[C@@H](OC(=O)[C@H](O)[C@@H](NC(=O)OC(C)(C)C)c4ccccc4)C[C@@](O)([C@@H](OC(=O)c4ccccc4)[C@H]21)C3(C)C [Docetaxel]	–	–	12 µg/mL (≈ 14.9 µM)	5 µg/mL (≈ 6.19 µM)
25.5 µM	45%	–	–	7-propionyldocetaxel 3''-O-β-D-galactopyranoside [Compound 5]	41 µg/mL	28 µg/mL	–	–
